Legend:
Format in all cases: in vivo
Stellaria media [1] = test: Post-emergence herbicidal effect; conditions: assessed visually after about 3 weeks vs untreated controls
Description: (§1) • ABUTH: Abutilon theophrasti ALOMY: Alopecurus myosuroides • AMARE: Amaranthus retroflexus AVEFA: Avena fatua • CYPES: Cyperus esculentus ECHCG: Echinochloa crus-galli • LOLMU: Lolium multiflorum MATIN: Matricaria inodora • PHBPU: Ipomoea purpurea POLCO: Polygonum convolvulus • SETVI: Setaria viridis STEME: Stellaria media • VERPE: Veronica persica VIOTR: Viola tricolor Seeds of monocotyledonous and dicotyledonous weed and crop plants are laid out in sandy loam in wood-fiber pots, covered with soil and cultivated in a greenhouse under good growth conditions. 2 to 3 weeks after sowing, the test plants are treated at the one-leaf stage. The compounds of the invention, formulated in the form of wettable powders (WP) or as emulsion concentrates (EC), are then sprayed onto the green parts of the plants as aqueous suspension or emulsion at a water application rate equating to 600 to 800 L/ha with addition of 0.2% wetting agent. After the test plants have been left to stand in the greenhouse under optimal growth conditions for about 3 weeks, the action of the preparations is assessed visually in comparison to untreated controls (herbicidal action in percent (%): 100% activity=the plants have died, 0% activity=like control plants).

Abutilon theophrasti = test: Post-emergence herbicidal effect; conditions: assessed visually after about 3 weeks vs untreated controls
Description: as §1

Amaranthus retroflexus [2] = test: Pre-emergence herbicidal effect; conditions: scored visually after 3 weeks
Description: (§2) Seeds of monocotyledonous and dicotyledonous weed plants and crop plants are laid out in wood-fiber pots in sandy loam and covered with soil. The compounds of the invention, formulated in the form of wettable powders (WP) or as emulsion concentrates (EC), are then applied to the surface of the covering soil as aqueous suspension or emulsion at a water application rate equating to 600 to 800 L/ha with addition of 0.2% wetting agent.
(§3) After the treatment, the pots are placed in a greenhouse and kept under good growth conditions for the trial plants. The damage to the test plants is scored visually after a test period of 3 weeks by comparison with untreated controls (herbicidal activity in percent (%): 100% activity=the plants have died, 0% activity=like control plants).
(§4) • ABUTH: Abutilon theophrasti ALOMY: Alopecurus myosuroides • AMARE: Amaranthus retroflexus AVEFA: Avena fatua • CYPES: Cyperus esculentus ECHCG: Echinochloa crus-galli • LOLMU: Lolium multiflorum MATIN: Matricaria inodora • PHBPU: Ipomoea purpurea POLCO: Polygonum convolvulus • SETVI: Setaria viridis STEME: Stellaria media • VERPE: Veronica persica VIOTR: Viola tricolor

Stellaria media [3] = test: Pre-emergence herbicidal effect; conditions: scored visually after 3 weeks
Description: as §2, §3, §4

Matricaria inodora = test: Pre-emergence herbicidal effect; conditions: scored visually after 3 weeks
Description: as §2, §3, §4

Viola tricolor [4] = test: Pre-emergence herbicidal effect; conditions: scored visually after 3 weeks
Description: as §2, §3, §4

Amaranthus retroflexus [5] = test: Post-emergence herbicidal effect; conditions: assessed visually after about 3 weeks vs untreated controls
Description: as §1

Setaria viridis [6] = test: Post-emergence herbicidal effect; conditions: assessed visually after about 3 weeks vs untreated controls
Description: as §1

Veronica persica [7] = test: Post-emergence herbicidal effect; conditions: assessed visually after about 3 weeks vs untreated controls
Description: as §1

Ipomoea purpurea = test: Post-emergence herbicidal effect; conditions: 320 g/ha, assessed visually after about 3 weeks vs untreated controls
Description: as §1

Viola tricolor [8] = test: Post-emergence herbicidal effect; conditions: assessed visually after about 3 weeks vs untreated controls
Description: as §1

Echinochloa crus-galli [9] = test: Post-emergence herbicidal effect; conditions: 320 g/ha, assessed visually after about 3 weeks vs untreated controls
Description: as §1

Setaria viridis [10] = test: Pre-emergence herbicidal effect; conditions: scored visually after 3 weeks
Description: as §2, §3, §4

Veronica persica [11] = test: Pre-emergence herbicidal effect; conditions: scored visually after 3 weeks
Description: as §2, §3, §4

Alopecurus myosuroides = test: Pre-emergence herbicidal effect; conditions: scored visually after 3 weeks
Description: as §2, §3, §4

Echinochloa crus-galli [12] = test: Pre-emergence herbicidal effect; conditions: scored visually after 3 weeks
Description: as §2, §3, §4

Polygonum convolvulus = test: Pre-emergence herbicidal effect; conditions: scored visually after 3 weeks
Description: as §2, §3, §4

Lolium multiflorum = test: Pre-emergence herbicidal effect; conditions: Dosage 320 g/ha, scored visually after 3 weeks
Description: as §2, §3, §4

Row | SMILES | post-emergence efficacy STEME (Stellaria media [1]; 320 g/ha) [%] | post-emergence efficacy ABUTH (Abutilon theophrasti; 320 g/ha) [%] | AMARE pre-emergence efficacy (herbicidal activity) (Amaranthus retroflexus [2]; Dosage 320 g/ha) [%] | STEME pre-emergence efficacy (herbicidal activity) (Stellaria media [3]; Dosage 80 g/ha) [%] | STEME pre-emergence efficacy (herbicidal activity) (Stellaria media [3]; Dosage 320 g/ha) [%] | MATIN pre-emergence efficacy (herbicidal activity) (Matricaria inodora; Dosage 320 g/ha) [%] | VIOTR pre-emergence efficacy (herbicidal activity) (Viola tricolor [4]; Dosage 320 g/ha) [%] | post-emergence efficacy AMARE (Amaranthus retroflexus [5]; 80 g/ha) [%] | post-emergence efficacy AMARE (Amaranthus retroflexus [5]; 320 g/ha) [%] | post-emergence efficacy SETVI (Setaria viridis [6]; 320 g/ha) [%] | post-emergence efficacy VERPE (Veronica persica [7]; 320 g/ha) [%] | post-emergence efficacy VIOTR (Viola tricolor [8]; 80 g/ha) [%] | post-emergence efficacy VIOTR (Viola tricolor [8]; 320 g/ha) [%] | SETVI pre-emergence efficacy (herbicidal activity) (Setaria viridis [10]; Dosage 320 g/ha) [%] | VERPE pre-emergence efficacy (herbicidal activity) (Veronica persica [11]; Dosage 80 g/ha) [%] | VERPE pre-emergence efficacy (herbicidal activity) (Veronica persica [11]; Dosage 320 g/ha) [%] | MATIN pre-emergence efficacy (herbicidal activity) (Matricaria inodora; Dosage 80 g/ha) [%] | ALOMY pre-emergence efficacy (herbicidal activity) (Alopecurus myosuroides; Dosage 320 g/ha) [%] | VIOTR pre-emergence efficacy (herbicidal activity) (Viola tricolor [4]; Dosage 80 g/ha) [%] | POLCO pre-emergence efficacy (herbicidal activity) (Polygonum convolvulus; Dosage 320 g/ha) [%] | other results
1 | Nc1nc(NC2CCCc3occc32)ncc1C(F)(F)F (racemic) [compound 7] | 80 | 40 | 100 | 80 | 90 | 90 | 100 | – | – | – | – | – | – | – | – | – | – | – | – | – | –
2 | Nc1nc(NC2CCc3cc(Cl)sc32)ncc1C(F)(F)F (racemic) [compound 48] | 90 | – | 100 | – | 100 | 90 | 100 | 80 | 90 | 90 | 80 | 80 | 90 | 80 | 100 | 100 | 80 | 80 | 100 | – | post-emergence efficacy SETVI (Setaria viridis [6]; 80 g/ha): 80%; post-emergence efficacy PHBPU (Ipomoea purpurea): 80%; post-emergence efficacy ECHCG (Echinochloa crus-galli [9]): 100%; ECHCG pre-emergence efficacy (herbicidal activity) (Echinochloa crus-galli [12]; Dosage 80 g/ha): 100%; ECHCG pre-emergence efficacy (herbicidal activity) (Echinochloa crus-galli [12]; Dosage 320 g/ha): 100%
3 | CS(=O)(=O)c1cnc(NC2CCc3cc(Cl)sc32)nc1N (racemic) [compound 50] | 100 | – | 100 | 100 | 100 | 90 | 100 | 80 | 90 | – | 90 | 90 | 100 | 100 | 100 | 100 | 90 | – | 80 | 100 | post-emergence efficacy VERPE (Veronica persica [7]; 80 g/ha): 80%; AMARE pre-emergence efficacy (herbicidal activity) (Amaranthus retroflexus [2]; Dosage 80 g/ha): 100%; LOLMU pre-emergence efficacy (herbicidal activity) (Lolium multiflorum): 80%; ECHCG pre-emergence efficacy (herbicidal activity) (Echinochloa crus-galli [12]; Dosage 80 g/ha): 90%; ECHCG pre-emergence efficacy (herbicidal activity) (Echinochloa crus-galli [12]; Dosage 320 g/ha): 100%
4 | CC(=O)c1c(N)nc(NC2CCCc3sc(C)cc32)nc1C(F)(F)F (racemic) [compound 268] | 100 | – | 100 | 90 | 100 | 90 | 90 | – | – | 80 | 80 | 80 | 80 | 90 | 100 | 100 | – | 90 | 80 | – | post-emergence efficacy STEME (Stellaria media [1]; 80 g/ha): 100%; post-emergence efficacy VERPE (Veronica persica [7]; 80 g/ha): 80%; AMARE pre-emergence efficacy (herbicidal activity) (Amaranthus retroflexus [2]; Dosage 80 g/ha): 100%; SETVI pre-emergence efficacy (herbicidal activity) (Setaria viridis [10]; Dosage 80 g/ha): 90%; ALOMY pre-emergence efficacy (herbicidal activity) (Alopecurus myosuroides; Dosage 80 g/ha): 80%
5 | Cc1cc2c(s1)CCCC2Nc1ncc(-c2cccc(C(F)(F)F)c2)c(N)n1 (racemic) [compound 294] | – | 70 | – | 100 | 100 | 100 | 90 | 70 | 70 | – | 90 | – | – | – | 100 | 100 | 90 | 100 | 80 | 80 | post-emergence efficacy ABUTH (Abutilon theophrasti; 80 g/ha): 60%; ALOMY pre-emergence efficacy (herbicidal activity) (Alopecurus myosuroides; Dosage 80 g/ha): 70%; POLCO pre-emergence efficacy (herbicidal activity) (Polygonum convolvulus; Dosage 80 g/ha): 70%; LOLMU pre-emergence efficacy (herbicidal activity) (Lolium multiflorum): 100%
6 | Cc1cc2c(s1)CCCC2Nc1nc(N)c(S(C)(=O)=O)c(C(F)(F)F)n1 (racemic) [compound 298] | – | – | 100 | 100 | 100 | 100 | 100 | 70 | 90 | – | – | 80 | 80 | – | 100 | 100 | – | 90 | 90 | 50 | –
